What was measured:
HCT116 cells = test: HCT116 cell proliferation MTT assay; type: cell-based; details: HCT-116; HCT116 human colon carcinoma cells, MTT assay after 5 days (120 h) incubation, compound 3 uM to 0.15 nM
Description: HCT116 cells (human colon carcinoma cell line) were cultivated in RPMI 1640, 2.5% FCS, 2 mM Glutamine, 100 u/ml Penicillin, 100 ug/ml Streptomycin. For the assay the cells were seeded in 384 well plates, 1000 cells per well, in the same medium
The next day compounds (dissolved 10 mM in DMSO) were added in various concentrations ranging from 3 uM to 0.15 nM. After 5 days the MTT assay was done mainly according to the instructions of the manufacturer (Cell proliferation kit I, MTT, from Roche Molecular Biochemicals). In brief: MTT labeling reagent was added to a final concentration of 0.5 mg/ml, added and incubated for 4 hrs at 37° C., 5% CO2. During this incubation time purple formazan crystals are formed. After addition of the solubilization solution (20% SDS in 0.02 M HCl) the plates were incubated overnight at 37° C., 5% CO2. After careful mixing plates were measured in Victor 2 (scanning multiwell spectrophotometer, Wallac) at 550 nm.
A decrease in number of living cells results in a decrease in the total metabolic activity in the sample. The decrease directly correlates to the amount of purple color resulting from the solubilization of the purple formazan crystals.
Materials: • HCT116 1000 cells in 60 ul per well of 384 well plate (Greiner) • Medium: RPMI 1640, 2.5% FCS, glutamine, pen/strep. • Incubate 1 day at 37° C.
Induction: • Dilution of compound in DMSO: 3 ul 10 mM+27 ul DMSO, dilute 1:3 • Add 2 ul of compound dilution row to 95 ul of medium • Add 10 ul of compound dilution to 60 ul medium in test plate results in 0.3% DMSO per well • Incubate 120 h (5 days) at 37° C., 5% CO2
Analysis: • Add 7 ul MTT ([…]), incubate 4 h at 37° C. • Add 30 ul lysis buffer (20% SDS, 0.04N HCl) per well • Incubate overnight at 37° C.
Measurement: • Victor 2 (scanning multiwell spectrophotometer, Wallac), at 550 nm • Determination of IC50 was done using XL-fit.

Row | IC50 (HCT116 cells) | melting point | Compound
1 | 20 to 40 nM | 183 to 185 °C | O=C(Nc1ccc(CCCCn2ccnn2)cc1)c1coc(C=Cc2ccc(C(F)(F)F)cc2)n1 [Example 11, 2-[2-(4-Trifluoromethyl-phenyl)-vinyl]-oxazole-4-carboxylic acid [4-(4-[1,2,3]triazol-1-yl-butyl)-phenyl]-amide]
2 | 20 to 40 nM | 127 to 129 °C | CN(C(=O)c1coc(C=Cc2ccc(C(F)(F)F)cc2)n1)c1ccc(CCCCn2ccnn2)cc1 [Example 12, 2-[2-(4-Trifluoromethyl-phenyl)-vinyl]-oxazole-4-carboxylic acid methyl-[4-(4-[1,2,3]triazol-1-yl-butyl)-phenyl]-amide]
3 | > 40 nM | 109 to 111 °C | Fc1ccc(C=Cc2nc(CNc3ccc(CCCCn4ccnn4)cc3)co2)c(C(F)(F)F)c1 [Example 27, {2-[2-(4-Fluoro-2-trifluoromethyl-phenyl)-vinyl]-oxazol-4-ylmethyl}-[4-(4-[1,2,3]triazol-1-yl-butyl)-phenyl]-amine]

Continued, compound first:

Row | Compound | IC50 (HCT116 cells) | melting point
4 | CN(Cc1coc(C=Cc2ccc(C(F)(F)F)cc2)n1)c1ccc(OCCCn2ccnn2)cc1 [Example 10, Methyl-[4-(3-[1,2,3]triazol-1-yl-propoxy)-phenyl]-{2-[2-(4-trifluoromethyl-phenyl)-vinyl]-oxazol-4-ylmethyl}-amine] | > 40 nM | 137 to 138 °C
5 | Clc1ccc(C=Cc2nc(CNc3ccc(CCCCn4ccnn4)cc3)co2)cc1Cl [Example 25, {2-[2-(3,4-Dichloro-phenyl)-vinyl]-oxazol-4-ylmethyl}-[4-(4-[1,2,3]triazol-1-yl-butyl)-phenyl]-amine] | < 20 nM | 76.8 to 78.8 °C
6 | FC(F)(F)Oc1cccc(C=Cc2nc(CNc3ccc(CCCCn4ccnn4)cc3)co2)c1 [Example 28, [4-(4-[1,2,3]Triazol-1-yl-butyl)-phenyl]-{2-[2-(3-trifluoromethoxy-phenyl)-vinyl]-oxazol-4-ylmethyl}-amine] | > 40 nM | 91 to 93 °C
7 | [O-][S+](c1ccc(/C=C/c2nc(CNc3ccc(CCCCn4ccnn4)cc3)co2)cc1)C(F)(F)F (centres unmarked) [Example 33, [4-(4-[1,2,3]Triazol-1-yl-butyl)phenyl]-{2-[(E)-2-(-4-trifluoromethanesulfinyl-phenyl)-vinyl]-oxazol-4-ylmethyl}-amine] | > 40 nM | 121 to 124 °C

Reference: US7205326B2, “Aniline derivatives, their manufacture and use as pharmaceutical agents” (Hoffmann-La Roche Inc., priority 2003, dated 2007)
